Measurements as given in patent US20250352524A1, “PREVENTION OF METASTATIC OUTGROWTH USING TEAD INHIBITORS” (Georgetown University, priority 2024, published 2025).
Entries after “also recorded” stand apart in the source; their conditions may differ.

Tests used:
DCIS cells = assay: Real Time Cell Analysis, proliferation of DCIS cells; type: cell-based, human; settings: VT107 at varying concentrations, cell index
Experimental: To further examine the effect of TEAD inhibition on the myeloid compartment of the lung, a human breast cancer cell line MCFDCIS (DCIS) that metastasizes to the lungs when a small population of cells (DCISA4) expresses an isoform of the transcription coactivator amplified in breast cancer 1 (Sharif et al., 2021), was used. DCIS:DCISA4 cells were injected into the mammary fat pad of NOD/SCID mice. Mice were treated daily with VT107. Tumors were surgically removed at week 4 and lungs were monitored for metastases for another 4 weeks without receiving additional treatment (FIG. 13, Panel B). Mouse body weights were measured weekly throughout the course of treatment (FIG. 13, Panel C). […] All mice in the vehicle treated group developed lung metastases as previously reported (Sharif et al., 2021). […] RNA was extracted from lung tissues to further examine the host stroma affected by VT107. RNA sequencing reads from the lungs were aligned to the mouse transcriptome to shed light on the host tissue changes in response to treatment in the presence of seeded cancer cells. […]
Cell analysis was done using E-plates from xCELLigence, (Agilent, #5469830001) according to the manufacturer's protocol. […] Cell index was measured by changes in electric impedance at 15 min intervals. […]

T-cells = assay: Degranulation assay of T-cells co-cultured with 4T1 cells; type: cell-based, BALB/c mice
Experimental: The hippo pathway has been implicated in T-cell development and function (Du et al., 2014; Ueda et al., 2012). For example, YAP expression is essential for tumor immune suppression by Treg cells that attenuates CD8 T-cell immunity (Geng et al., 2017; Ni et al., 2018; Lebid et al., 2020). […] To investigate whether VT107 directly affected T-cells, T-cells treated with VT107 were co-cultured with 4T1 cells in 2D for 72 hours. […] To further confirm T-cell activation upon TEAD activity reduction, we used Jurkat cells, a CD4 positive human lymphoma cell line (Schneider et al., 1977). […] However, here we show the specific effect of TEAD reduction on granzyme gene expression and degranulation that result in the killing of cancer cells.
T-cells were isolated from the spleens of naïve BALB/c as described above and treated in vitro with DMSO control or VT107 for 24 hours. T-cells were then co-cultured with 4T1 cells with the same treatment conditions. After 72 hours, all cells were collected and subdued to flow cytometry using anti-CD45-AF700 (Biolegend, 103128), anti-CD8-BV785 (Biolegend, 100750), anti-CD4-Pacific Blue (Biolegend, 116007), anti-CD107a-PE/Cy7 (Biolegend, 121620), and Helix NP Blue (Biolegend, 425305). Analysis was performed on the BD FACSymphony Δ3 flow cytometer analyzer, and results were analyzed using FCS Express 7 Research (De Novo Software).

DCIS:DCISA4 cells = assay: DCIS:DCIS-Δ4 mammary fat pad tumors in NOD/SCID mice, lung metastasis; type: in vivo; settings: for growth rate or final volume of the primary tumors: tumors resected at 4 weeks; for outgrowth of cancer cells disseminated to the lungs: immunofluorescent staining of lungs
Experimental: Parental ductal carcinoma in situ (DCIS) was mixed with genetically-modified DCIS cells expressing AIB1-Δ4 (“DCIS-Δ4”) (see Sharif et al., 2021) at a 4:1 ratio, and the mix was injected into the mammary fat pad (MFP) of the mice. One group of mice received 30 mg/kg of the TEAD inhibitor VT107 (“iTEAD”) and the other group received vehicle treatment by daily oral gavage for 4 weeks. The primary tumors were removed by survival surgery. There was no difference observed in the growth rate or final volume of the primary tumors.
Lung tissues were subjected to RNA-Seq analysis, and Gene Set Enrichment Analysis (GSEA) was used to determine altered signaling pathways upon iTEAD treatment.
To further examine the effect of TEAD inhibition on the myeloid compartment of the lung, a human breast cancer cell line MCFDCIS (DCIS) that metastasizes to the lungs when a small population of cells (DCISA4) expresses an isoform of the transcription coactivator amplified in breast cancer 1 (Sharif et al., 2021), was used. DCIS:DCISA4 cells were injected into the mammary fat pad of NOD/SCID mice. Mice were treated daily with VT107. Tumors were surgically removed at week 4 and lungs were monitored for metastases for another 4 weeks without receiving additional treatment (FIG. 13, Panel B). Mouse body weights were measured weekly throughout the course of treatment (FIG. 13, Panel C). […] All mice in the vehicle treated group developed lung metastases as previously reported (Sharif et al., 2021). […] RNA was extracted from lung tissues to further examine the host stroma affected by VT107. RNA sequencing reads from the lungs were aligned to the mouse transcriptome to shed light on the host tissue changes in response to treatment in the presence of seeded cancer cells. […] These observations again show a shift in the inflammatory phenotypes in the microenvironment which could be responsible for the halt in the metastatic outgrowth of seeded cancer cells in the treated group.
Studies in mice were reviewed and approved by the Georgetown University Animal Care and Use Committee (GUACUC). Animals were randomized to receive vehicle control (DMSO) or VT107. Treatment was formulated in 5% DMSO, 10% solutol and 85% D5W; D5W. 5% glucose and administered daily by oral gavage. Five hundred thousand cells were injected into the mammary fat pad of age-matched 8 weeks old female NOD/SCID or C57/B16 mice purchased from Charles River or Jackson Laboratory, respectively. A hundred thousand 4T1 cells were injected into the tail veins of BALB/c mice purchased from Jackson Laboratory. Experimental timelines, treatment start times and durations are indicated in the figure diagrams and figure legends. Tissues collected were preserved in RNAlater (Thermofisher, #AM7020) or fixed in 10% formalin for histology analysis.
The total RNA from tissue or cell lines was extracted using RNeasy Mini Kit (Qiagen, #74104) according to the manufacturer's instructions. Total RNA integrity was assessed with the Agilent 2100 Bioanalyzer. The library preparation and next-generation sequencing (NGS) were performed at Novogene Corporation Inc. (Sacramento, CA, USA). At least triplicate samples per experimental condition were analyzed, raw sequence reads (150 bp paired end, […] average reads/sample) were aligned to the human or mouse transcriptome using STAR, and aligned reads translated to expression counts via featurecounts, followed by a standard edgeR (RRID:SCR_012802) pipeline to identify DEGs under specific conditions. Ingenuity pathway analysis (IPA, RRID:SCR_008653) was undertaken using a list of all differentially expressed genes with a cutoff of p-value less than 0.05 to identify signaling pathways and upstream regulators.

[1] = pathway analysis of lung RNA sequencing, VT107 vs vehicle

**Q.** For VT107, which “proliferation of DCIS / breast cancer cells in vitro” value (DCIS cells) is on record?
**A.** The value was “no significant change”.

**Q.** And the “proliferation of DCIS / breast cancer cells in vitro” value (DCIS cells; listed as iTEAD)?
**A.** Its value is “no effect”.

**Q.** What about the “T-cell degranulation marker CD107a” value (T-cells; 1 μM VT107, co-culture with 4T1 cells 72 hours, flow cytometry) of the same substance?
**A.** Its value is “significantly increased”.

**Q.** And the IFNγ levels (T-cells; T-cells treated with VT107, co-cultured with 4T1 cells in 2D for 72 hours)?
**A.** The IFNγ levels was “no change”.

**Q.** What about the “development of lung metastases” value (DCIS:DCISA4 cells; 30 mg/kg daily oral gavage for 4 weeks vs vehicle, H&E lung sections, listed as iTEAD) of the same substance?
**A.** The value was “did not develop lung metastases; also recorded: significantly reduced”.

**Q.** And the “growth rate or final volume of the primary tumors” value (DCIS:DCISA4 cells; 30 mg/kg daily oral gavage for 4 weeks vs vehicle)?
**A.** The value was “similar”.

**Q.** And the “growth rate or final volume of the primary tumors” value (DCIS:DCISA4 cells; 30 mg/kg daily oral gavage for 4 weeks vs vehicle, listed as iTEAD)?
**A.** The value was “no difference; also recorded: no effect”.

**Q.** And the “outgrowth of cancer cells disseminated to the lungs” value (DCIS:DCISA4 cells; 30 mg/kg daily)?
**A.** The value was “failed to grow into overt metastases”.

**Q.** What about the “outgrowth of cancer cells disseminated to the lungs” value (DCIS:DCISA4 cells; 30 mg/kg daily, listed as iTEAD) of the same substance?
**A.** Its value is “halted outgrowth; also recorded: unable to outgrow”.

**Q.** What about the “mice with no overt lung metastases” value (DCIS:DCISA4 cells; 30 mg/kg daily, lungs monitored 4 weeks after tumor removal, all vehicle mice developed metastases) of the same substance?
**A.** The value was 4 out of 5.

**Q.** What about the “Toll-like receptor 4 (TLR4) signaling pathway in lung tissue (GSEA)” value (DCIS:DCISA4 cells; RNA-Seq of lung tissue, iTEAD vs vehicle) of the same substance?
**A.** The value was “drop and downregulation”.

**Q.** And the “human actin relative to mouse actin in lung tissues by qPCR” value (DCIS:DCISA4 cells; VT107-treated mice)?
**A.** Its value is “presence of DCIS cells”.

**Q.** What about the “myeloid cell activating pathways, acute phase response signaling and PD-L1 immunotherapy pathways in lungs” value (DCIS:DCISA4 cells; [1]) of the same substance?
**A.** The value was “upregulation”.

**Q.** And the “signaling pathways implicated in pulmonary and hepatic fibrosis, cardiac hypertrophy and liver injury in lungs” value (DCIS:DCISA4 cells; [1])?
**A.** The value was “downregulated”.
